From patent US11234979B2, “Heteroaryl compounds as muscarinic M1 receptor positive allosteric modulators” (SUVEN LIFE SCIENCES LIMITED, priority 2017, dated 2022) come the findings set out here.

A short description of data set [1]: Rodent pharmacokinetic study. Type of data set: in vivo, Male Wistar rats. The note with it: male, Wistar, rat, plasma. The procedure: Rodent Pharmacokinetic Study
Male Wistar rats (260±50 grams) were used as experimental animals. Animals were housed individually in polypropylene cage. Two days prior to study, male Wistar rats were anesthetized with isoflurane for surgical placement of jugular vein catheter. Rats were randomly divided for oral (3 mg/kg) and intravenous (i.v) (1 mg/kg) dosing (n=3/group) and fasted overnight before oral dosing (p.o.). However, rats allocated to intravenous (i.v.) dosing food and water was provided ad libitum.
At pre-determined point, blood was collected through jugular vein and replenished with an equivalent volume of normal saline. Collected blood was transferred into a labeled eppendorf tube containing 10 μL of heparin as an anticoagulant. Typically blood samples were collected at following time points: 0.08, 0.25, 0.5, 1, 2, 4, 6, 8, and 24 hours post dose. Blood was centrifuged at 4000 rpm for 10 minutes. Plasma was separated and stored frozen at −80° C. until analysis. The concentrations of the test compounds were quantified in plasma by qualified LC-MS/MS method using suitable extraction technique. The test compounds were quantified in the calibration range around 1-1000 ng/mL in plasma. Study samples were analyzed using calibration samples in the batch and quality control samples spread across the batch.
Pharmacokinetic parameters Cmax, AUCt, T1/2, clearance and bioavailability (F) were calculated by non-compartmental model using standard non-compartmental model by using Phoenix WinNonlin 6.0.2 or 6.0.3 version Software package.

Data set [2] concerns hippocampal theta oscillations. The experiment in a line: Theta modulation in dorsal hippocampus of anesthetized rats in combination with donepezil. Particulars: anesthetized rat, Example 32 1 mg/kg. Type of data set: in vivo, Male Wistar rats. The text has this: Evaluation of Theta Modulation in Dorsal Hippocampus of Anesthetized Male Wistar
Male Wistar rats (240-320 g) were anesthetized by Intraperitoneal administration of urethane (1.2 to 1.5 g/kg) for implantation of a catheter in the left femoral vein. The animal was placed in a stereotaxic frame for implanting an electrode (stainless steel wire, Plastics One) into the dorsal hippocampus (AP: −3.8 mm; ML: +2.2 mm; DV: −2.5 mm; Paxinos and Watson, 2004). Bipolar stimulating electrode (untwisted stainless steel wires, separated by 0.75-1.0 mm at their tips, Plastics One) was implanted in the Nucleus Pontis Oralis (NPO; AP: −7.8 mm; ML: 1.8 mm; DV: −6.0 mm; Paxinos and Watson, 2004). Additionally one electrode was implanted into the cerebellum which served as a reference. Hippocampal θ rhythm was evoked via a 6-s electrical stimulation train (20-160 μA, 0.3-ms pulse duration, 250 Hz) delivered to the NPO at a rate of 0.01 trains/s with a Grass S88 stimulator and PSIU6 stimulus isolation unit (Grass Medical Instruments, Quincy, Mass.). EEG was recorded at a rate of 1000 Hz using Ponemah (Version 5.2) software and stored for off-line analysis using NeuroScore (Version 3.0). Baseline amplitude level was achieved by using the current required to elicit […] to 50% of the maximal amplitude under control conditions. After the stabilization period of one hour, baseline recording was done for 30 min followed by the treatment of vehicle or Example 32 (1 mg/kg, i.v.).
Power in the θ rhythm frequency in the stimulation period during the 30-min baseline period was calculated and the % changes in these measures post treatment were calculated. […] Statistical significance was considered at a p value less than 0.05.

For another data set, the system named is Male Wistar rats. The experiment in a line: Object recognition task model. The class given is in vivo. The note with it: rat, 3 mg/kg, p.o. As for the experimental part:
Object Recognition Task Model
The cognition enhancing properties of compounds of this invention were estimated by using this model.
Male Wistar rats (8-10 weeks old) were used as experimental animals. Four animals were housed in each cage. Animals were kept on 20% food deprivation from a day prior to experimentation. Water was provided ad libitum throughout the experiment. Animals were maintained on a 12 hours light/dark cycle in temperature and humidity controlled room. The experiment was carried out in a circular or square arena made up of acrylic. Rats were habituated to individual arenas for up to 1 hour in the absence of any objects on day 1.
One group of 12 rats received vehicle and another set of animals received compound of the formula (I), before the familiar (T1) and choice (T2) trials. During the familiarization phase, (T1), the rats were placed individually in the arena for 3 minutes, in which two identical objects (a1 and a2) were positioned 10 cm from the wall. 24 hours after T1, trial for long-term memory test was performed. The same rats were placed in the same arena as they were placed in T1 trial. During the choice phase (T2) rats were allowed to explore the arena for 3 minutes in presence of a copy of familiar object (a3) and one novel object (b). During the T1 and T2 trial, explorations of each object (defined as sniffing, licking, chewing or having moving vibrissae whilst directing the nose towards the object at a distance of less than 1 cm) were recorded using stopwatch.
T1 is the total time spent exploring the familiar objects (a1+a2).
T2 is the total time spent exploring the familiar object and novel object (a3+b).
The object recognition test was performed as described by Ennaceur, A., Delacour, J., 1988, A new one-trial test for neurobiological studies of memory in rats˜Behavioural data, Behav. Brain Res., 31, 47-59.

[3] abbreviates: choice trial T2, 24 hours after T1.

The term AUC(0-t) denotes the area under the concentration-time curve up to a stated or last time point. A low value points to less exposure. The term half-life denotes the time needed for the level to fall by half in the phase considered. A higher half-life goes with slow decline. A word on the clearance: it is the rate of elimination divided by the concentration. For orientation: bioavailability means the share of a dose that reaches the circulation, judged against a reference dose that is usually intravenous. A lower bioavailability goes with poor availability. The term Cmax denotes the maximum level reached in the sampled fluid or tissue. As for `Cn1cc(-c2ccc(Cc3cc(C(=O)N[C@H]4CCCC[C@@H]4O)n4ncccc34)cc2)cn1` [Example 32, N-(cis-1S,2S-2-Hydroxycyclohexyl)-5-[4-(1-methyl-1H-pyrazol-4-yl)-benzyl]-pyrrolo [1,2-b]pyridazine-7-carboxamide], in data set [1] (iv, i.v. 1 mg/kg), the AUC(0-t) is 3260 ± 802 ng·h/mL, the half-life is 3.2 ± 1.2 h and the clearance is 5.2 ± 1.4 mL/min/kg. In data set [1] (oral 3 mg/kg vs i.v. 1 mg/kg, bioavailability), the bioavailability turned out to be 50 ± 17%. In data set [1] (oral 3 mg/kg), this compound gave an AUC(0-t) of 4900 ± 1640 ng·h/mL, a maximum concentration (Cmax) of 650 ± 224 ng/mL and a half-life of 3.2 ± 0.4 h. Also, in data set [2] (i.v. + donepezil 0.3 mg/kg), the “Mean area under the curve values (AUC) of θ power change, combination versus donepezil alone” value is on record as “significantly higher compared to donepezil alone” and the “effect on θ power, combination treatment versus donepezil alone” value is “significantly higher than the donepezil alone”. Further, the θ power levels result in data set [2] (i.v. in combination with donepezil 0.3 mg/kg) was “significant increase”. Besides, in the data set with Male Wistar rats, the Inference entry was “Active”. Moreover, in the data set with Male Wistar rats (setting [3]), the “Exploration time mean ± S.E.M, Familiar object” value worked out at 11.64 ± 2.16 s and the “Exploration time mean ± S.E.M, Novel object” value was 19.81 ± 2.96 s.
